Data reported in patent US20110251379A1, “COMPOUNDS USEFUL FOR TREATING NEURODEGENERATIVE DISORDERS” (Satori Pharmaceuticals, Inc., priority 2010, published 2011).
Where two headings read alike, the source gives them in different places.

Columns and labels:
Type in all cases: cell-based
Aβ-40 = experiment: MSD Human (6E10) Ab 3-PLEX elisa, conditioned media of 2B7 cells: Aβ-40; conditions: for IC50: Aβ-40 (superscript b); for inhibition at 20 µM: Aβ-40, 20 μM
Outline: (§1)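 Each Aβ peptide was measured by MSD 6E10 3-plex electrochemiluminescence against its own seven-point standard curve. Samples were conditioned media from 2B7 cells exposed to compound for 5 hours at 37° C with 1% DMSO. Percent-vehicle values were fitted to a 4-parameter curve to give IC50.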

Aβ-42 = experiment: MSD Human (6E10) Ab 3-PLEX elisa, conditioned media of 2B7 cells: Aβ-42; conditions: for IC50: Aβ-42 (superscript c); for inhibition at 20 µM: Aβ-42, 20 μM
Outline: as §1

Aβ-38 = experiment: MSD Human (6E10) Ab 3-PLEX elisa, conditioned media of 2B7 cells: Aβ-38; conditions: for IC50: Aβ-38 (superscript a)
Outline: as §1

[1] = Homo sapiens, read-out: 50% reduction value
[2] = Homo sapiens, read-out: IC50 range

CC(=O)N(Cc1cc(F)cc(F)c1)CC1CC(C)C2C(O1)C(O)C1(C)C3CCC4C(C)(C)C(OC(=O)C5CNC5)CCC45CC35CCC21C (stereo not shown) [drawing 1215]
IC50 (Aβ-40; read-out: 50% reduction value): 1 to 10 µM | IC50 (Aβ-40; read-out: IC50 range): 1 to 10 µM | IC50 (Aβ-42; read-out: 50% reduction value): 1 to 10 µM | IC50 (Aβ-42; read-out: IC50 range): 1 to 10 µM | IC50 (Aβ-38; read-out: 50% reduction value): 1 to 10 µM | IC50 (Aβ-38; read-out: IC50 range): 1 to 10 µM

CCO[C@H](C(C)C)C1C[C@@H](C)[C@H]2C(O1)[C@H](O)[C@@]1(C)[C@@H]3CC[C@H]4C(C)(C)C(O)CC[C@@]45C[C@@]35CC[C@]21C (stereo partly shown)
IC50 (Aβ-40; [1]): 1 to 10 µM | IC50 (Aβ-42; [1]): 1 to 10 µM | IC50 (Aβ-38; [1]): 1 to 10 µM

CCO[C@@H](C1C[C@@H](C)[C@H]2C(O1)[C@H](O)[C@@]1(C)C3CC[C@H]4C(C)(C)C(OC(=O)NC)CC[C@@]45C[C@@]35CC[C@]21C)C(C)(C)O (stereo partly shown)
inhibition at 20 µM (Aβ-40; Homo sapiens): > 75% | IC50 (Aβ-42; [1]): < 1 µM | IC50 (Aβ-38; [1]): < 1 µM

C[C@@H]1CC([C@H]([S+](C)[O-])C(C)(C)O)OC2[C@H]1[C@@]1(C)CC[C@@]34C[C@@]35CCC(O)C(C)(C)[C@@H]5CCC4[C@]1(C)[C@H]2O (stereo partly shown)
inhibition at 20 µM (Aβ-40; Homo sapiens): 25 to 75% | inhibition at 20 µM (Aβ-42; Homo sapiens): 25 to 75% | IC50 (Aβ-38; [1]): 1 to 10 µM

CC(=O)OCC1C[C@@H](C)[C@H]2C(O1)[C@H](O)[C@@]1(C)C3CC[C@H]4C(C)(C)[C@@H](O[C@H]5CN(C6COC6)CCO5)CC[C@@]45C[C@@]35CC[C@]21C (stereo partly shown)
inhibition at 20 µM (Aβ-40; Homo sapiens): < 25% | inhibition at 20 µM (Aβ-42; Homo sapiens): < 25% | inhibition at 20 µM (Aβ-38; Homo sapiens, Aβ-38, 20 μM): 25 to 75%

CC(=O)OC(C1CC(C)C2C(O1)C(O)C1(C)C3CCC4C(C)(C)C(OC(=O)C5CNC5)CCC45CC35CCC21C)C(C)(C)O (stereo not shown) [drawing 1205]
IC50 (Aβ-40; read-out: 50% reduction value): < 1 µM | IC50 (Aβ-40; read-out: IC50 range): 1 to 10 µM | IC50 (Aβ-42; read-out: 50% reduction value): < 1 µM | IC50 (Aβ-42; read-out: IC50 range): < 1 µM | IC50 (Aβ-38; read-out: 50% reduction value): < 1 µM | IC50 (Aβ-38; read-out: IC50 range): < 1 µM

CO[C@H](C(C)C)C1C[C@@H](C)[C@H]2C(O1)[C@H](O)[C@@]1(C)C3CC[C@H]4C(C)(C)[C@@H](O[C@H]5CNCCO5)CC[C@@]45C[C@@]35CC[C@]21C (stereo partly shown)
IC50 (Aβ-40; [1]): 1 to 10 µM | IC50 (Aβ-40; [2]): 1 to 10 µM | IC50 (Aβ-42; [1]): 1 to 10 µM | IC50 (Aβ-42; [2]): 1 to 10 µM | IC50 (Aβ-38; [1]): 1 to 10 µM | IC50 (Aβ-38; [2]): 1 to 10 µM

CC(=O)N(CC1CC(C)C2C(O1)C(O)C1(C)C3CCC4C(C)(C)C(O)CCC45CC35CCC21C)C(C)C (stereo not shown) [drawing 1213]
% Inh. (range) (Aβ-40; Aβ-40, 100 μM): E^b (100 μM) E^c (100 μM) (% inhibition of 25-75%) | % Inh. (range) (Aβ-42; Aβ-42, 100 μM): E^b (100 μM) E^c (100 μM) (% inhibition of 25-75%) | IC50 (Aβ-38; read-out: 50% reduction value): 1 to 10 µM

CC1CC(C(OC(=O)C2CCC2)C(C)(C)O)OC2C1C1(C)CCC34CC35CCC(OC3CN(C6COC6)CCO3)C(C)(C)C5CCC4C1(C)C2O (stereo not shown) [drawing 1219]
IC50 (Aβ-40; read-out: 50% reduction value): < 1 µM | IC50 (Aβ-42; read-out: 50% reduction value): < 1 µM | IC50 (Aβ-38; read-out: 50% reduction value): < 1 µM | IC50 (Aβ-38; read-out: IC50 range): < 1 µM

CC(=O)O[C@@H]([C@H]1C[C@@H](C)C2C(O1)[C@H](O)[C@@]1(C)[C@@H]3CC[C@H]4C(C)(C)[C@@H](OC5CN(CC(=O)N(C)C)CCO5)CC[C@@]45C[C@@]35CC[C@]21C)C(C)(C)O (stereo partly shown) [drawing 1199]
IC50 (Aβ-40; [1]): 1 to 10 µM | IC50 (Aβ-42; [1]): < 1 µM | IC50 (Aβ-42; [2]): < 1 µM | IC50 (Aβ-38; [1]): < 1 µM | IC50 (Aβ-38; [2]): < 1 µM

CCNC(=O)O[C@H](C(C)C)C1C[C@@H](C)[C@H]2C(O1)[C@H](O)[C@@]1(C)C3CC[C@H]4C(C)(C)C(OC(=O)N5CCOCC5)CC[C@@]45C[C@@]35CC[C@]21C (stereo partly shown)
inhibition at 20 µM (Aβ-40; Homo sapiens): 25 to 75% | IC50 (Aβ-42; [2]): < 1 µM | IC50 (Aβ-38; [1]): < 1 µM

CC(C)CO[C@@H](C1C[C@@H](C)[C@H]2C(O1)[C@H](O)[C@@]1(C)C3CC[C@H]4C(C)(C)C(OC(=O)NC5CNC5)CC[C@@]45C[C@@]35CC[C@]21C)C(C)(C)O (stereo partly shown)
IC50 (Aβ-40; [1]): 1 to 10 µM | IC50 (Aβ-42; [1]): < 1 µM | IC50 (Aβ-42; [2]): < 1 µM | IC50 (Aβ-38; [1]): 1 to 10 µM

CO[C@@H]([C@H]1C[C@@H](C)[C@H]2[C@H](O1)[C@H](OC)[C@@]1(C)C3CC[C@H]4C(C)(C)[C@@H](O[C@H]5CN(C6COC6)CCO5)CC[C@@]45C[C@@]35CC[C@]21C)C(C)(C)O (stereo partly shown)
inhibition at 20 µM (Aβ-40; Homo sapiens): 25 to 75% | inhibition at 20 µM (Aβ-42; Homo sapiens): 25 to 75% | IC50 (Aβ-38; [1]): < 1 µM

CO[C@@H]([C@H]1C[C@@H](C)[C@H]2[C@H](O1)[C@H](O)[C@@]1(C)C3CC[C@H]4C(C)(C)[C@@H](O[C@H]5CN(C6COC6)CCO5)CC[C@@]45C[C@@]35CC[C@]21C)C(C)(C)O (stereo partly shown)
IC50 (Aβ-40; [1]): 1 to 10 µM | IC50 (Aβ-42; [1]): < 1 µM | IC50 (Aβ-38; [1]): < 1 µM

C[C@@H]1CC([C@@H](C(C)(C)O)S(C)(=O)=O)OC2[C@H]1[C@@]1(C)CC[C@@]34C[C@@]35CCC(O)C(C)(C)[C@@H]5CCC4[C@]1(C)[C@H]2O (stereo partly shown)
inhibition at 20 µM (Aβ-40; Homo sapiens): 25 to 75% | inhibition at 20 µM (Aβ-42; Homo sapiens): 25 to 75% | IC50 (Aβ-38; [1]): 1 to 10 µM
